Earlier results as cited in article PMC9436819 (JACC: Basic to Translational Science, 2022).

Columns and labels:
[1] = set-up: method as in PMID 30044681, PMID 31035291; details: cited from earlier work
[2] = system: patients with obstructive HCM; set-up: method as in PMID 32871100; details: cited from earlier work

CC(C)n1c(=O)cc(N[C@@H](C)c2ccccc2)[nH]c1=O [Mavacamten]
Time required to reach a steady state [1]: 6 weeks
LV outflow tract pressure gradients [2]: reduced
Improving exercise capacity and health status ([2]; vs placebo): superior to placebo
